Laboratory results as given in PubChem BioAssay (NCI).
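Results reflect a 48-hour exposure of cells in 96-well plates to compound at five concentrations. Definition used: TGI = concentration required for complete inhibition of growth.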

Tests used:
Assay in all cases: growth of human tumour cells (NCI), 48 h
HOP-62 NSCLC = tested on: HOP-62 NSCLC
LOX IMVI melanoma = tested on: LOX IMVI melanoma
HCT-15 colon = tested on: HCT-15 colon
HT29 colon = tested on: HT29 colon
SN12C renal = tested on: SN12C renal
SF-539 CNS = tested on: SF-539 CNS
OVCAR-5 ovarian = tested on: OVCAR-5 ovarian
HS 578T breast = tested on: HS 578T breast
SF-268 CNS = tested on: SF-268 CNS
SK-MEL-2 melanoma = tested on: SK-MEL-2 melanoma
OVCAR-3 ovarian = tested on: OVCAR-3 ovarian
RPMI-8226 leukemia = tested on: RPMI-8226 leukemia
A549 NSCLC = tested on: A549 NSCLC
HOP-92 NSCLC = tested on: HOP-92 NSCLC
786-0 renal = tested on: 786-0 renal
MDA-MB-231 breast = tested on: MDA-MB-231 breast
DU-145 prostate = tested on: DU-145 prostate
UO-31 renal = tested on: UO-31 renal
OVCAR-4 ovarian = tested on: OVCAR-4 ovarian
MDA-N = tested on: MDA-N
CAKI-1 renal = tested on: CAKI-1 renal
KM12 colon = tested on: KM12 colon
SF-295 CNS = tested on: SF-295 CNS
K-562 leukemia = tested on: K-562 leukemia
NCI/ADR-RES ovarian = tested on: NCI/ADR-RES ovarian
HCC-2998 colon = tested on: HCC-2998 colon
M14 melanoma = tested on: M14 melanoma
NCI-H23 lung = tested on: NCI-H23 lung
NCI-H460 lung = tested on: NCI-H460 lung
SK-OV-3 ovarian = tested on: SK-OV-3 ovarian
BT-549 breast = tested on: BT-549 breast
NCI-H226 lung = tested on: NCI-H226 lung
SNB-19 CNS = tested on: SNB-19 CNS
SR leukemia = tested on: SR leukemia
CCRF-CEM leukemia = tested on: CCRF-CEM leukemia
SK-MEL-5 melanoma = tested on: SK-MEL-5 melanoma
SK-MEL-28 melanoma = tested on: SK-MEL-28 melanoma
COLO 205 colon = tested on: COLO 205 colon
HCT-116 colon = tested on: HCT-116 colon
SNB-75 CNS = tested on: SNB-75 CNS
U251 CNS = tested on: U251 CNS
NCI-H522 lung = tested on: NCI-H522 lung
EKVX NSCLC = tested on: EKVX NSCLC
TK-10 renal = tested on: TK-10 renal
SW-620 colon = tested on: SW-620 colon
T-47D breast = tested on: T-47D breast
HL-60(TB) leukemia = tested on: HL-60(TB) leukemia
UACC-257 melanoma = tested on: UACC-257 melanoma
ACHN renal = tested on: ACHN renal
IGROV1 ovarian = tested on: IGROV1 ovarian
OVCAR-8 ovarian = tested on: OVCAR-8 ovarian
PC-3 prostate = tested on: PC-3 prostate
RXF 393 renal = tested on: RXF 393 renal
A498 renal = tested on: A498 renal
UACC-62 melanoma = tested on: UACC-62 melanoma
MDA-MB-435 = tested on: MDA-MB-435
MOLT-4 leukemia = tested on: MOLT-4 leukemia
MCF7 breast = tested on: MCF7 breast
MALME-3M melanoma = tested on: MALME-3M melanoma

In the case of `COCC1OC(OC2OCC3OC4(OCC(O)(C(C)OC)C5OCOC54)OC3C2OC)C(OC)C(O)C1OC1OC(C)C(OC)C(OC2OC(C)C3OC4(CC(O)C(OC5CC(OC6CC(C)([N+](=O)[O-])C(OC)C(C)O6)C(OC(=O)c6c(C)c(Cl)c(O)c(Cl)c6OC)C(C)O5)C(C)O4)OC3(C)C2O)C1O` (stereo not drawn), the TGI (HOP-62 NSCLC) is reported as > 100 µM, the TGI (LOX IMVI melanoma) is reported as > 100 µM and the TGI (HCT-15 colon) is reported as > 100 µM. The TGI (HT29 colon) was > 100 µM, the TGI (SN12C renal) was > 100 µM and the TGI (SF-539 CNS) was > 100 µM. For the same compound, the TGI (OVCAR-5 ovarian) was > 100 µM, the TGI (HS 578T breast) was > 100 µM and the TGI (SF-268 CNS) was > 100 µM. For the same compound, the TGI (SK-MEL-2 melanoma) was > 100 µM, the TGI (OVCAR-3 ovarian) was > 100 µM and the TGI (RPMI-8226 leukemia) was > 100 µM. For the same compound, the TGI (A549 NSCLC) was > 100 µM, the TGI (HOP-92 NSCLC) was > 100 µM and the TGI (786-0 renal) was > 100 µM. The TGI (MDA-MB-231 breast) was > 100 µM, the TGI (DU-145 prostate) was > 100 µM and the TGI (UO-31 renal) was > 100 µM. For the same compound, the TGI (OVCAR-4 ovarian) was > 100 µM, the TGI (MDA-N) was > 100 µM and the TGI (CAKI-1 renal) was > 100 µM. For the same compound, the TGI (KM12 colon) was > 100 µM, the TGI (SF-295 CNS) was > 100 µM and the TGI (K-562 leukemia) was > 100 µM. For the same compound, the TGI (NCI/ADR-RES ovarian) was > 100 µM, the TGI (HCC-2998 colon) was > 100 µM and the TGI (M14 melanoma) was > 100 µM. For the same compound, the TGI (NCI-H23 lung) was > 100 µM, the TGI (NCI-H460 lung) was > 100 µM and the TGI (SK-OV-3 ovarian) was > 100 µM. The TGI (BT-549 breast) was > 100 µM, the TGI (NCI-H226 lung) was > 100 µM and the TGI (SNB-19 CNS) was > 100 µM. The TGI (SR leukemia) was > 100 µM, the TGI (CCRF-CEM leukemia) was > 100 µM and the TGI (SK-MEL-5 melanoma) was > 100 µM. For the same compound, the TGI (SK-MEL-28 melanoma) was > 100 µM, the TGI (COLO 205 colon) was > 100 µM and the TGI (HCT-116 colon) was > 100 µM. For the same compound, the TGI (SNB-75 CNS) was > 100 µM, the TGI (U251 CNS) was > 100 µM and the TGI (NCI-H522 lung) was > 100 µM. For the same compound, the TGI (EKVX NSCLC) was > 100 µM, the TGI (TK-10 renal) was > 100 µM and the TGI (SW-620 colon) was > 100 µM. For the same compound, the TGI (T-47D breast) was > 100 µM, the TGI (HL-60(TB) leukemia) was > 100 µM and the TGI (UACC-257 melanoma) was > 100 µM. The TGI (ACHN renal) was > 100 µM, the TGI (IGROV1 ovarian) was > 100 µM and the TGI (OVCAR-8 ovarian) was > 100 µM. The TGI (PC-3 prostate) was > 100 µM, the TGI (RXF 393 renal) was > 100 µM and the TGI (A498 renal) was > 100 µM. For the same compound, the TGI (UACC-62 melanoma) was > 100 µM, the TGI (MDA-MB-435) was > 100 µM and the TGI (MOLT-4 leukemia) was > 100 µM.
For `CC(C)(O)C1CC[C@]2(C)CC[C@]3(C)[C@H](CC[C@@H]4[C@@]5(C)CC[C@H](O)C(C)(C)[C@@H]5CC[C@]43C)[C@@H]12` (stereo partly drawn), the TGI (HOP-62 NSCLC) was 84.3 µM, the TGI (HCT-15 colon) was > 100 µM and the TGI (HT29 colon) was > 100 µM. The TGI (SN12C renal) was > 100 µM, the TGI (SF-539 CNS) was 55.4 µM and the TGI (OVCAR-5 ovarian) was 75.9 µM. For the same compound, the TGI (HS 578T breast) was 68.1 µM, the TGI (SF-268 CNS) was > 100 µM and the TGI (SK-MEL-2 melanoma) was 62.5 µM. The TGI (OVCAR-3 ovarian) was 50.7 µM, the TGI (RPMI-8226 leukemia) was > 100 µM and the TGI (A549 NSCLC) was > 100 µM. For the same compound, the TGI (HOP-92 NSCLC) was 44.1 µM, the TGI (786-0 renal) was 78.1 µM and the TGI (MDA-MB-231 breast) was > 100 µM. For the same compound, the TGI (DU-145 prostate) was 57.9 µM, the TGI (UO-31 renal) was > 100 µM and the TGI (OVCAR-4 ovarian) was 78.3 µM. For the same compound, the TGI (MDA-N) was > 100 µM, the TGI (CAKI-1 renal) was 45.6 µM and the TGI (KM12 colon) was 89.3 µM. The TGI (SF-295 CNS) was 57.6 µM, the TGI (K-562 leukemia) was > 100 µM and the TGI (NCI/ADR-RES ovarian) was 82.4 µM. The TGI (HCC-2998 colon) was 51.9 µM, the TGI (M14 melanoma) was 95.4 µM and the TGI (NCI-H23 lung) was > 100 µM. The TGI (NCI-H460 lung) was > 100 µM, the TGI (SK-OV-3 ovarian) was 49.3 µM and the TGI (BT-549 breast) was 60.9 µM. The TGI (NCI-H226 lung) was > 100 µM, the TGI (SNB-19 CNS) was > 100 µM and the TGI (SR leukemia) was > 100 µM. The TGI (CCRF-CEM leukemia) was > 100 µM, the TGI (MCF7 breast) was > 100 µM and the TGI (SK-MEL-5 melanoma) was > 100 µM. The TGI (SK-MEL-28 melanoma) was 67.7 µM, the TGI (COLO 205 colon) was 92.2 µM and the TGI (HCT-116 colon) was 59.4 µM. The TGI (SNB-75 CNS) was 45.7 µM, the TGI (U251 CNS) was > 100 µM and the TGI (NCI-H522 lung) was 73.2 µM. It also gave a TGI (EKVX NSCLC) of 44.5 µM, a TGI (TK-10 renal) of 53.3 µM and a TGI (MALME-3M melanoma) of 57.7 µM. For the same compound, the TGI (T-47D breast) was 66.2 µM, the TGI (HL-60(TB) leukemia) was > 100 µM and the TGI (UACC-257 melanoma) was 50.2 µM. The TGI (ACHN renal) was 71.3 µM, the TGI (IGROV1 ovarian) was 85.8 µM and the TGI (OVCAR-8 ovarian) was > 100 µM. For the same compound, the TGI (PC-3 prostate) was > 100 µM, the TGI (RXF 393 renal) was > 100 µM and the TGI (UACC-62 melanoma) was > 100 µM. For the same compound, the TGI (MDA-MB-435) was > 100 µM and the TGI (MOLT-4 leukemia) was > 100 µM.
